The values below come from article PMC4042406 (British journal of haematology, 2011).

Where “and” joins values, the source holds several entries; their conditions need not be identical. Equal values may be shown once.

Series [1] has as its system MM.1S cells. Nature of the series: InnoCyte Cytochrome C release assay. The series is classed as cell-based, human.
Series [2] concerns MM.1S cells. Nature of the series: Immunoblotting, comparison of LCQ195, flavopiridol and Taxol. Particulars: equipotent doses: LCQ195 1 μM, flavopiridol 50 nM; 4-24 hrs. A general note: A western blot detects proteins with antibodies after separation by electrophoresis.
Series [3] relates to MM.1S cells. Nature of the series: Gene expression profiling. It counts as cell-based, human. Particulars: 2 μM, 2-24hrs.
Series [4] deals with CD138+ selected primary MM cells. Kind of series: CellTiterGlo viability of purified primary tumor cells from MM patients. The series is classed as cell-based, human. As to conditions: increasing doses, 48 hrs. A general note: In ATP-based viability assays light output follows the ATP content of the culture.
Series [5] deals with T1, CDK2/cyclin A (Homo sapiens, UniProt P24941). Kind of series: Invitrogen Z'-LYTE in vitro kinase activity assay. It counts as biochemical. Particulars: 500 nM LCQ195, 100 μM ATP, 1% DMSO.
Series [6] deals with MM.1S cells. Kind of series: Flow cytometric cell cycle analysis. The series is classed as cell-based, human. Particulars: 2 μM for up to 48 hours.
The target in a further series is CDK5/p25 (Homo sapiens, UniProt Q00535). Nature of the series: Invitrogen Z'-LYTE in vitro kinase activity assay. It counts as biochemical. As to conditions: 500 nM LCQ195, 100 μM ATP, 1% DMSO.
CDK5/p25, sequence (Q00535 whole entry): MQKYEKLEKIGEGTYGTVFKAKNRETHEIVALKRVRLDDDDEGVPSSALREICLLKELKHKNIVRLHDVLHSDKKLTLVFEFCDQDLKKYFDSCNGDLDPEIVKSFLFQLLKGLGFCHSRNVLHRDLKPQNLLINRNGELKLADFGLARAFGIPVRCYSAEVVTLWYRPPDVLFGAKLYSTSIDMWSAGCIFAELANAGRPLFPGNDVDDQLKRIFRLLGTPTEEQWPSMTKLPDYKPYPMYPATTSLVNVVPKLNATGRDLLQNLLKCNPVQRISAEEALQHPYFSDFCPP
The target of series [7] is T1, CDK2/cyclin A. Nature of the series: Millipore KinaseProfilerXL kinase activity, dose titration. It counts as biochemical. Particulars: 5-log dose titration 0.001-10μM.
For a further series, the system named is PBMCs. Nature of the series: MTT viability of PBMCs from healthy donors. It counts as cell-based, human. As to conditions: LCQ195 up to 8 μM for 48 hrs.
For the next series, the target named is CLK3 (Homo sapiens, UniProt P49761). Kind of series: Invitrogen Z'-LYTE in vitro kinase activity assay. The series is classed as biochemical. As to conditions: 500 nM LCQ195, 100 μM ATP, 1% DMSO.
CLK3, sequence (P49761 whole entry): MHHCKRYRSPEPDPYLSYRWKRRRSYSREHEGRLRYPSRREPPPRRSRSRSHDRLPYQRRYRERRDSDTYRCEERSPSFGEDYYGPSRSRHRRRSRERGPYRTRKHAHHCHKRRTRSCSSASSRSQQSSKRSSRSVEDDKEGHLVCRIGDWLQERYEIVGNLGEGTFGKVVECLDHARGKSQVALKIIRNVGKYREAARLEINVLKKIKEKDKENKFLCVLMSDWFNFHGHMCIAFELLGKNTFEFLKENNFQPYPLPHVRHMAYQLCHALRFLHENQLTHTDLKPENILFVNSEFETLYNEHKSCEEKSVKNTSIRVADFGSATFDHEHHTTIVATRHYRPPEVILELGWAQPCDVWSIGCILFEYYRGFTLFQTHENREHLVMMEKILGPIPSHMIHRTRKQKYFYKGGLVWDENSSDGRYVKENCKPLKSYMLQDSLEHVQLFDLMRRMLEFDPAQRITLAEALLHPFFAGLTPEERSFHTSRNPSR
A further series has as its system KMS-12-BM MM cell line. Nature of the series: MTT colorimetric survival assay. The series is classed as cell-based, human. Particulars: read-out: EC50 (viability), 0-4 μM, 48 hrs.
Series [8] deals with MM.1S cells. Nature of the series: Drug combination viability. It counts as cell-based, human. As to conditions: data not shown.
The test system of the next series is HS-5 BMSCs. Kind of series: MTT viability of non-malignant stromal cells. As to conditions: read-out: calculated EC50 (viability); non-malignant HS-5 BMSCs. It counts as cell-based, human.
The next series addresses CDK1/cyclin B (Homo sapiens, UniProt P06493). Nature of the series: Invitrogen Z'-LYTE in vitro kinase activity assay. It counts as biochemical. Particulars: 500 nM LCQ195, 100 μM ATP, 1% DMSO.
The target of the next series is CHEK2 (CHK2) (Homo sapiens, UniProt O96017). Kind of series: Invitrogen Z'-LYTE in vitro kinase activity assay. It counts as biochemical. Particulars: 500 nM LCQ195, 100 μM ATP, 1% DMSO.
CHEK2 (CHK2), sequence (O96017 whole entry): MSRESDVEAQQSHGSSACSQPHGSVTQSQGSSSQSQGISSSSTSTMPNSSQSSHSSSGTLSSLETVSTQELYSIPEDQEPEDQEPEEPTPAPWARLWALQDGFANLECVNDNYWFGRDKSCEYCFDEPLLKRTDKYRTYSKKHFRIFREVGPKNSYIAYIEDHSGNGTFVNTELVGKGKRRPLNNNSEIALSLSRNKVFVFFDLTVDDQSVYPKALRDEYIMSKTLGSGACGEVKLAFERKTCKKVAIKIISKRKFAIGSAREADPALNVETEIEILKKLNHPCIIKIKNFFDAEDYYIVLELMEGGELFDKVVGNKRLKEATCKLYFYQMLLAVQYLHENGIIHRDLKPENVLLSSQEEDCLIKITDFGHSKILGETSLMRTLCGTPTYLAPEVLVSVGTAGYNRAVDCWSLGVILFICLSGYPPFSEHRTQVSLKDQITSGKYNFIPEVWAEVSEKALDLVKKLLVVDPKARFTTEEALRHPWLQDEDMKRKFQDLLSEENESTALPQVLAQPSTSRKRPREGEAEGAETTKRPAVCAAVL
A further series deals with NOP2 MM cell line. Kind of series: MTT colorimetric survival assay. As to conditions: read-out: EC50 (viability), NOP2, 0-4 μM, 48 hrs. The series is classed as cell-based, human.
Another series deals with Dox40 MM cell line. Kind of series: MTT colorimetric survival assay. The series is classed as cell-based, human. Particulars: read-out: EC50 (viability), Dox40, 0-4 μM, 48 hrs. (Tetrazolium dyes change colour on reduction, which living cells bring about.)
Series [9] has as its system MM.1S cells. Nature of the series: Annexin V / PI flow cytometric analysis of apoptosis. As to conditions: 2 μM, 4-48 hrs. It counts as cell-based, human.
Another series deals with panel of MM cell lines. Kind of series: MTT colorimetric survival assay, panel of MM cell lines. Particulars: read-out: EC50 (viability), majority of MM cell lines, 0-4 μM, 48 hrs. It counts as cell-based, human.
Series [10] deals with Bcl-2 over-expressing MM.1S. Nature of the series: Survival of Bcl-2 over-expressing MM.1S vs parental cells. The series is classed as cell-based, human. Particulars: LCQ195 treatment for 48 hrs.
Another series has as its target CDK2/cyclin E (Homo sapiens, UniProt P24941). Kind of series: Millipore KinaseProfilerXL kinase activity, dose titration. As to conditions: 5-log dose titration 0.001-10μM. The series is classed as biochemical.
The test system of a further series is S6B45 MM cell line. Kind of series: MTT colorimetric survival assay. It counts as cell-based, human. As to conditions: read-out: EC50 (viability), S6B45, 0-4 μM, 48 hrs.
The test system of another series is Delta 47 MM cell line. Nature of the series: MTT colorimetric survival assay. Particulars: read-out: EC50 (viability), Delta 47, 0-4 μM, 48 hrs. It counts as cell-based, human.
A further series concerns OPM2 MM cell line. Kind of series: MTT colorimetric survival assay. The series is classed as cell-based, human. Particulars: read-out: EC50 (viability), OPM2, 0-4 μM, 48 hrs.
The next series has as its target CDK5/p35 (Homo sapiens, UniProt Q00535). Nature of the series: Invitrogen Z'-LYTE in vitro kinase activity assay. Particulars: 500 nM LCQ195, 100 μM ATP, 1% DMSO. The series is classed as biochemical.
The subject of series [11] is MM.1S cells. Kind of series: Immunoblotting analysis of LCQ195-treated cells. The series is classed as cell-based, human. As to conditions: 2 μM.
The next series relates to XG-1 MM cell line. Nature of the series: MTT colorimetric survival assay. The series is classed as cell-based, human. Particulars: read-out: EC50 (viability), XG-1, 0-4 μM, 48 hrs.
A further series concerns U266 MM cell line. Kind of series: MTT colorimetric survival assay. The series is classed as cell-based, human. Particulars: read-out: EC50 (viability), U266, 0-4 μM, 48 hrs.
In series [12] the test system is immortalized hepatocyte cell line THLE-3. Nature of the series: MTT viability of immortalized hepatocytes. Particulars: read-out: calculated EC50 (viability); immortalized hepatocytes THLE-3. The series is classed as cell-based.

CDK1/cyclin B, sequence (P06493 whole entry): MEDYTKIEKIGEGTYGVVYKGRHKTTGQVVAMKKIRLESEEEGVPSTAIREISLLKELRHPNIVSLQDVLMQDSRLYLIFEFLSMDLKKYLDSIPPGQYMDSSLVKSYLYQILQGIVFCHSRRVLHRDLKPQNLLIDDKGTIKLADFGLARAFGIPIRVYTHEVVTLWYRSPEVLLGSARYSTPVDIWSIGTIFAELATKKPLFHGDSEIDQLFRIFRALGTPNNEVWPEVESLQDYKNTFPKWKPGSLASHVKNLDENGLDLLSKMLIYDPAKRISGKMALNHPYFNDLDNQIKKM
CDK5/p35, sequence (Q00535 whole entry): as the sequence (Q00535 whole entry) above

With `CC(C)C[C@H](NC(=O)[C@H](Cc1ccccc1)NC(=O)c1cnccn1)B(O)O` [PS-341, reference compound], in the series with MM.1S cells [1] (positive control, 50 nM for 12 hrs), the cytochrome c release result is “significant release of cytochrome C”.

Take `CN1CC[C@H](c2c(O)cc(O)c3c(=O)cc(-c4ccccc4Cl)oc23)[C@H](O)C1` [flavopiridol, reference compound]: in the series with MM.1S cells [2], the “p107 levels (immunoblotting)” value is listed as “stable”.

Consider `CS(=O)(=O)N1CCC(NC(=O)c2[nH]ncc2NC(=O)c2c(Cl)cccc2Cl)CC1` [LCQ195], for which the “expression of transcription factors myc, IRF4 and XBP-1 (transcripts)” value in the series with MM.1S cells [3] was “suppressed”. Besides, in series [4], the “response of purified primary tumor cells (viability)” value is “responded”. Besides, the “inhibition of kinase activity” value on CDK2/cyclin A [5] is given as “potent inhibition”; at CDK5/p25, “potent inhibition”; at CLK3, “partial inhibition”; at CDK1/cyclin B it was “potent inhibition”; against CHEK2 (CHK2) it was “partial inhibition”; at CDK5/p35, “potent inhibition”. Also, the cell cycle profile result in the series on MM.1S cells [6] is “increased the percentage of cells in S and G2/M phases early, followed by an increase in sub-G1 population”. The “in vitro kinase activity in dose titration” value at CDK2/cyclin A [7] and on CDK2/cyclin E was “active at sub-μM concentrations” throughout. Also, the “percentage of viable PBMCs” value in the series on PBMCs is reported as no less than 50%. The EC50 is less than 1000 nM in the series on KMS-12-BM MM cell line; greater than 4000 nM with HS-5 BMSCs; greater than 4000 nM in the series with NOP2 MM cell line; greater than 4000 nM with Dox40 MM cell line; ~1000 nM and ≤ 1000 nM in the series with panel of MM cell lines; less than 1000 nM with S6B45 MM cell line. In addition, the EC50 in the series on Delta 47 MM cell line was less than 1000 nM; in the series on OPM2 MM cell line, less than 1000 nM; in the series on XG-1 MM cell line, greater than 4000 nM; in the series with U266 MM cell line, less than 1000 nM; in [12], greater than 4000 nM. Besides, in the series on MM.1S cells [8], the combination with bortezomib entry was “no synergy”. Further, the combination with doxorubicin result in the series with MM.1S cells [8] is on record as “no synergy”. In the series with MM.1S cells [2], the “p107 levels (immunoblotting)” value is given as “decreased”. Moreover, the “apoptosis (Annexin V / PI staining)” value in the series on MM.1S cells [9] is “induces apoptosis”. In addition, the “effect of bcl-2 overexpression on cell survival after treatment” value in [10] is “minimal effect on cell survival”. Besides, in the series with MM.1S cells [1] (2 μM LCQ195 for 4-24hrs), the cytochrome c release result was “no changes”. Also, the “caspase 8, caspase 3 and PARP cleavage (immunoblotting)” value in the series on MM.1S cells [11] (0-24 hrs) was “cleavage as early as 16 hrs”. In addition, the “caspase 9 cleavage (immunoblotting)” value in the series with MM.1S cells [11] (0-24 hrs) is “no cleavage of caspase 9”. For the same compound, the “Rb phosphorylation (immunoblotting)” value with MM.1S cells [11] (as early as 2 hours) is listed as “pronounced decrease”.
